The values that follow come from patent US20010014694A1, “Substituted phenyl compounds and derivatives thereof that modulate the activity of endothelin” (priority 1996, published 2001).

Read-outs that look alike come from different tables or passages of the source. Some results are limits rather than exact numbers.

The target of one data set is T1, human ETB receptor (Homo sapiens, UniProt P24530).
T1 construct: expressed in transfected cells; host or cells: COS7 cells, membrane preparation
T1 sequence (P24530 27-442): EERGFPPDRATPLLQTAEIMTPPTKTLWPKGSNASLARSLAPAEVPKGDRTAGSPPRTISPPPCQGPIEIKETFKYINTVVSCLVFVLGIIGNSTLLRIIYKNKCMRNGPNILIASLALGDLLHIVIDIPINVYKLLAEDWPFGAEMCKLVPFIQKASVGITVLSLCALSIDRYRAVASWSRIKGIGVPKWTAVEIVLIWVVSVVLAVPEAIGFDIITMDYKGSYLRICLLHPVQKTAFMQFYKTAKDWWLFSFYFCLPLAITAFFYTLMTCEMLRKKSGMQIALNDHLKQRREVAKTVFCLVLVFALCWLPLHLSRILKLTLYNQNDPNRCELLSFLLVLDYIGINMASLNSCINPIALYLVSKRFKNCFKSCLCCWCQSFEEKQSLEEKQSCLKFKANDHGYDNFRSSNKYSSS
The data set can be described thus: Binding Test #2: inhibition of 125I-labeled ET-1 binding to ETB receptors (transfected COS7 cell membranes). The following applies: ETB over ETA; preferably at least 3-fold greater affinity, more preferably 5-fold or more. The text has this:
Compounds that are potential endothelin antagonists are identified by testing their ability to compete with ^125I-labeled ET-1 for binding to human ETA receptors or ETB receptors present on isolated cell membranes. The effectiveness of the test compound as an antagonist or agonist of the biological tissue response of endothelin can also be assessed by measuring the effect on endothelin induced contraction of isolated rat thoracic aortic rings. The ability of the compounds to act as antagonists or agonists for ETB receptors can be assess by testing the ability of the compounds are to inhibit endothelin-1 induced prostacyclin release from cultured bovine aortic endothelial cells.
B. Endothelin Binding Inhibition—Binding Test #2: Inhibition of Binding to ETB Receptors
COS7 cells were transfected with DNA encoding the ETB receptor, The resulting cells, which express the human ETB receptor, were grown to confluence in T-150 flasks. Membrane was prepared as described above. The binding assay was performed as described above using the membrane preparation diluted with binding buffer to a concentration of 1 μg/50 μl.
Briefly, the COS7 cells, described above, that had been transfected with DNA encoding the ETB receptor and express the human ETB receptor on their surfaces were grown to confluence in T-175 flasks. Cells from multiple flasks were collected by scraping, pooled and centrifuged for 10 min at 190×g. The cells were resuspended in phosphate buffered saline (PBS) containing 10 mM EDTA using a Tenbroeck homogenizer. The suspension was centrifuged at 4° C. 57,800×g for 15 min, the pellet was resuspended in 5 ml of buffer A (5 mM HEPES buffer, pH 7.4 containing aprotinin (100 KIU/ml)) and then frozen and thawed once. Five ml of Buffer B (5 mM HEPES Buffer, pH 7.4 containing 10 mM MnCl2 and 0.001% deoxyribonuclease Type 1) was added, the suspension mixed by inversion and then incubated at 37° C. for 30 minutes. The mixture was centrifuged at 57,800×g as described above, the pellet washed twice with buffer A and then resuspended in buffer C (30 mM HEPES buffer, pH 7.4 containing aprotinin (100 KIU/ml) to give a final protein concentration of 2 mg/ml.
The binding assay was performed as described above using the membrane preparation diluted to give 1 μg/50 μl of binding buffer.

Data set [1] has as its system non-cardiovascular tissues, such as kidney, adrenal gland, and cerebellum (ETB receptors predominate). As to conditions: cited from earlier work.
Another data set concerns isolated vascular strips. As to conditions: read-out: EC50, contractile agent; cited from earlier work.
The test system of data set [2] is cardiovascular tissues (ETA receptors predominate). As to conditions: cited from earlier work.
Another data set concerns the target ETA receptor. As to conditions: read-out: IC50, inhibition of 125I-labelled endothelin-1 binding, cited from earlier work.
The target in a further data set is ETB receptors. As to conditions: tissues in which ETB receptors predominate; read-out: fails to inhibit binding to receptors at concentrations up to; cited from earlier work.

For the compound `COc1ccc(Oc2cccc(Oc3ccc(OC)cc3)c2C(=O)O)cc1` [Example 6, 2,6-bis-(4-methoxyphenoxy)benzoic acid], the melting point lay in the range of 222 to 224 °C. At human ETB receptor, the “ETB selective (interact with greater affinity with one receptor sub-type than with the other)” value is given as “ETB selective”.
Regarding “(Thr^2,Phe^4,Thr^5,Tyr^6,Lys^7,Tyr^14) endothelin-1 [endothelin-3]”, the “extent of inhibition of 125I-labelled endothelin-1 binding” value in data set [1] is given as “to the same extent”.
Take “endothelin-1: endothelium-derived potent twenty-one amino acid peptide vasoconstrictor, one of three endothelin isopeptides”: the EC50 with isolated vascular strips was 0.0004 µM. Besides, in data set [2], the “potency of inhibition of 125I-labelled endothelin-1 binding relative to endothelin-3” value was “forty to seven hundred times more potently”. Moreover, in data set [1], the “extent of inhibition of 125I-labelled endothelin-1 binding” value is “to the same extent”.
Consider “cyclo(D-Glu-L-Ala-allo-D-Ile-L-Leu-D-Trp) [BE-18257B]”, for which the IC50 at ETA receptor (aortic smooth muscle) is 1.4 µM; at ETA receptor (cultured aortic smooth muscle cells) it was 0.5 µM; at ETA receptor (ventricle membranes), 0.8 µM; at ETB receptors, above 100 µM.

Broadly, the melting point is the temperature of the solid-liquid transition. By EC50 is commonly meant the concentration that produces a half-maximal response.
